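Values below derive from 48-hour exposures of cells grown in 96-well plates, with endpoints linearly interpolated between the two concentrations bracketing the appropriate inhibition level. GI50 marks 50% less growth. TGI denotes the concentration required for complete inhibition of growth.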
Experiments:
Assay in all cases: DTP human tumour cell line panel, 48 h
TK-10 renal = tested on: TK-10 renal
KM12 colon = tested on: KM12 colon
SK-OV-3 ovarian = tested on: SK-OV-3 ovarian
HCT-116 colon = tested on: HCT-116 colon
SNB-19 CNS = tested on: SNB-19 CNS
SK-MEL-5 melanoma = tested on: SK-MEL-5 melanoma
SW-620 colon = tested on: SW-620 colon
OVCAR-3 ovarian = tested on: OVCAR-3 ovarian
HS 578T breast = tested on: HS 578T breast
M14 melanoma = tested on: M14 melanoma
NCI-H460 lung = tested on: NCI-H460 lung
786-0 renal = tested on: 786-0 renal
NCI/ADR-RES ovarian = tested on: NCI/ADR-RES ovarian
LOX IMVI melanoma = tested on: LOX IMVI melanoma
RPMI-8226 leukemia = tested on: RPMI-8226 leukemia
K-562 leukemia = tested on: K-562 leukemia
UO-31 renal = tested on: UO-31 renal
MALME-3M melanoma = tested on: MALME-3M melanoma
SNB-75 CNS = tested on: SNB-75 CNS
SR leukemia = tested on: SR leukemia
HCC-2998 colon = tested on: HCC-2998 colon
IGROV1 ovarian = tested on: IGROV1 ovarian
NCI-H522 lung = tested on: NCI-H522 lung
HOP-62 NSCLC = tested on: HOP-62 NSCLC
HOP-92 NSCLC = tested on: HOP-92 NSCLC
OVCAR-5 ovarian = tested on: OVCAR-5 ovarian
MCF7 breast = tested on: MCF7 breast
MDA-MB-231 breast = tested on: MDA-MB-231 breast
SF-539 CNS = tested on: SF-539 CNS
OVCAR-4 ovarian = tested on: OVCAR-4 ovarian
PC-3 prostate = tested on: PC-3 prostate
SF-268 CNS = tested on: SF-268 CNS
CAKI-1 renal = tested on: CAKI-1 renal
HT29 colon = tested on: HT29 colon
ACHN renal = tested on: ACHN renal
U251 CNS = tested on: U251 CNS
T-47D breast = tested on: T-47D breast
UACC-62 melanoma = tested on: UACC-62 melanoma
SN12C renal = tested on: SN12C renal
BT-549 breast = tested on: BT-549 breast
NCI-H226 lung = tested on: NCI-H226 lung
NCI-H23 lung = tested on: NCI-H23 lung
SK-MEL-28 melanoma = tested on: SK-MEL-28 melanoma
CCRF-CEM leukemia = tested on: CCRF-CEM leukemia
A549 NSCLC = tested on: A549 NSCLC
HCT-15 colon = tested on: HCT-15 colon
SF-295 CNS = tested on: SF-295 CNS
HL-60(TB) leukemia = tested on: HL-60(TB) leukemia
UACC-257 melanoma = tested on: UACC-257 melanoma
OVCAR-8 ovarian = tested on: OVCAR-8 ovarian
RXF 393 renal = tested on: RXF 393 renal
MOLT-4 leukemia = tested on: MOLT-4 leukemia
COLO 205 colon = tested on: COLO 205 colon
A498 renal = tested on: A498 renal
DU-145 prostate = tested on: DU-145 prostate
SK-MEL-2 melanoma = tested on: SK-MEL-2 melanoma
MDA-MB-435 = tested on: MDA-MB-435
EKVX NSCLC = tested on: EKVX NSCLC
MDA-N = tested on: MDA-N

COc1cc(/C=N/O)nc(-c2ccccn2)c1
GI50 (TK-10 renal): 0.325 µM
TGI (TK-10 renal): > 100 µM
GI50 (KM12 colon): 0.385 µM
TGI (KM12 colon): > 100 µM
TGI (SK-OV-3 ovarian): > 100 µM
GI50 (HCT-116 colon): 0.351 µM
TGI (HCT-116 colon): > 100 µM
GI50 (SNB-19 CNS): 0.558 µM
TGI (SNB-19 CNS): > 100 µM
TGI (SK-MEL-5 melanoma): 1.31 µM
GI50 (SW-620 colon): 0.415 µM
TGI (SW-620 colon): > 100 µM
GI50 (OVCAR-3 ovarian): 0.324 µM
TGI (OVCAR-3 ovarian): > 100 µM
GI50 (HS 578T breast): 3.76 µM
TGI (HS 578T breast): > 100 µM
TGI (M14 melanoma): 4.98 µM
GI50 (NCI-H460 lung): 0.304 µM
TGI (NCI-H460 lung): 12.9 µM
GI50 (786-0 renal): 0.465 µM
TGI (786-0 renal): 27.5 µM
GI50 (NCI/ADR-RES ovarian): 0.294 µM
TGI (NCI/ADR-RES ovarian): 10.9 µM
GI50 (LOX IMVI melanoma): 0.271 µM
TGI (LOX IMVI melanoma): 10.8 µM
TGI (RPMI-8226 leukemia): > 100 µM
TGI (K-562 leukemia): > 100 µM
GI50 (UO-31 renal): 0.183 µM
TGI (UO-31 renal): 6.82 µM
GI50 (MALME-3M melanoma): 0.431 µM
TGI (MALME-3M melanoma): 12.2 µM
GI50 (SNB-75 CNS): 0.5 µM
GI50 (SR leukemia): 0.284 µM
TGI (SR leukemia): 22.2 µM
GI50 (HCC-2998 colon): 0.341 µM
TGI (HCC-2998 colon): > 100 µM
GI50 (IGROV1 ovarian): 0.349 µM
TGI (IGROV1 ovarian): 24.1 µM
GI50 (NCI-H522 lung): 0.565 µM
TGI (NCI-H522 lung): > 100 µM
GI50 (HOP-62 NSCLC): 0.358 µM
TGI (HOP-62 NSCLC): > 69.7 µM
GI50 (HOP-92 NSCLC): 0.551 µM
TGI (HOP-92 NSCLC): > 100 µM
GI50 (OVCAR-5 ovarian): 0.637 µM
TGI (OVCAR-5 ovarian): > 100 µM
GI50 (MCF7 breast): 0.347 µM
TGI (MCF7 breast): > 100 µM
GI50 (MDA-MB-231 breast): 0.541 µM
TGI (MDA-MB-231 breast): > 100 µM
GI50 (SF-539 CNS): 0.386 µM
TGI (SF-539 CNS): 10.4 µM
GI50 (OVCAR-4 ovarian): 0.255 µM
TGI (OVCAR-4 ovarian): > 100 µM
GI50 (PC-3 prostate): 0.437 µM
TGI (PC-3 prostate): > 100 µM
GI50 (SF-268 CNS): 0.357 µM
TGI (SF-268 CNS): 68.2 µM
TGI (CAKI-1 renal): 8.97 µM
GI50 (HT29 colon): 0.454 µM
TGI (HT29 colon): > 100 µM
GI50 (ACHN renal): 0.241 µM
TGI (ACHN renal): 12.6 µM
GI50 (U251 CNS): 0.374 µM
TGI (U251 CNS): > 100 µM
GI50 (T-47D breast): 0.465 µM
TGI (T-47D breast): > 100 µM
GI50 (UACC-62 melanoma): 0.325 µM
TGI (UACC-62 melanoma): 2.7 µM
GI50 (SN12C renal): 0.434 µM
TGI (SN12C renal): > 44.7 µM
GI50 (BT-549 breast): 0.803 µM
TGI (BT-549 breast): > 100 µM
GI50 (NCI-H226 lung): 0.325 µM
TGI (NCI-H226 lung): 5.93 µM
TGI (NCI-H23 lung): > 100 µM
GI50 (SK-MEL-28 melanoma): 0.476 µM
TGI (SK-MEL-28 melanoma): > 100 µM
GI50 (CCRF-CEM leukemia): 0.207 µM
TGI (CCRF-CEM leukemia): > 33.2 µM
TGI (A549 NSCLC): > 100 µM
GI50 (HCT-15 colon): 0.197 µM
TGI (HCT-15 colon): > 100 µM
TGI (SF-295 CNS): > 35.5 µM
GI50 (HL-60(TB) leukemia): 0.271 µM
TGI (HL-60(TB) leukemia): 2.81 µM
GI50 (UACC-257 melanoma): 0.679 µM
TGI (UACC-257 melanoma): 9.43 µM
GI50 (OVCAR-8 ovarian): 0.348 µM
TGI (OVCAR-8 ovarian): 22.8 µM
GI50 (RXF 393 renal): 0.723 µM
TGI (RXF 393 renal): 14.8 µM
GI50 (MOLT-4 leukemia): 0.281 µM
TGI (MOLT-4 leukemia): 25.1 µM
GI50 (COLO 205 colon): 0.305 µM
TGI (COLO 205 colon): > 100 µM
GI50 (A498 renal): 0.717 µM
TGI (A498 renal): 19.4 µM
GI50 (DU-145 prostate): 0.4 µM
TGI (DU-145 prostate): > 75.3 µM
GI50 (SK-MEL-2 melanoma): 1.86 µM
TGI (SK-MEL-2 melanoma): > 100 µM
GI50 (MDA-MB-435): 0.492 µM
TGI (MDA-MB-435): > 100 µM
GI50 (EKVX NSCLC): 0.342 µM
TGI (EKVX NSCLC): > 100 µM

COc1ccc(CCNC(=S)/N=C\C2=C(O)c3ccccc3C2=O)cc1OC
TGI (KM12 colon): > 100 µM
TGI (SK-OV-3 ovarian): > 100 µM
TGI (HCT-116 colon): > 100 µM
TGI (SNB-19 CNS): > 100 µM
TGI (SK-MEL-5 melanoma): > 100 µM
TGI (SW-620 colon): > 100 µM
TGI (OVCAR-3 ovarian): 0.746 µM
TGI (HS 578T breast): 72.7 µM
TGI (M14 melanoma): > 100 µM
TGI (786-0 renal): > 100 µM
TGI (NCI/ADR-RES ovarian): > 100 µM
TGI (LOX IMVI melanoma): > 100 µM
TGI (RPMI-8226 leukemia): > 100 µM
TGI (K-562 leukemia): > 100 µM
TGI (UO-31 renal): > 100 µM
TGI (MDA-N): > 100 µM
TGI (MALME-3M melanoma): > 100 µM
TGI (SNB-75 CNS): > 100 µM
TGI (SR leukemia): > 100 µM
TGI (HCC-2998 colon): > 100 µM
TGI (IGROV1 ovarian): > 100 µM
TGI (NCI-H522 lung): > 100 µM
TGI (HOP-62 NSCLC): > 100 µM
TGI (HOP-92 NSCLC): 8.92 µM
TGI (OVCAR-5 ovarian): > 100 µM
TGI (MCF7 breast): > 100 µM
TGI (MDA-MB-231 breast): > 100 µM
TGI (SF-539 CNS): > 100 µM
TGI (OVCAR-4 ovarian): > 100 µM
TGI (PC-3 prostate): > 100 µM
TGI (SF-268 CNS): > 100 µM
TGI (CAKI-1 renal): > 100 µM
TGI (HT29 colon): > 100 µM
TGI (ACHN renal): > 100 µM
TGI (U251 CNS): > 100 µM
TGI (T-47D breast): > 100 µM
TGI (UACC-62 melanoma): > 100 µM
TGI (SN12C renal): > 100 µM
TGI (NCI-H226 lung): > 100 µM
TGI (NCI-H23 lung): > 100 µM
TGI (SK-MEL-28 melanoma): > 100 µM
TGI (CCRF-CEM leukemia): > 100 µM
TGI (A549 NSCLC): > 100 µM
TGI (HCT-15 colon): > 100 µM
TGI (SF-295 CNS): > 100 µM
TGI (HL-60(TB) leukemia): > 100 µM
TGI (UACC-257 melanoma): > 100 µM
TGI (OVCAR-8 ovarian): > 100 µM
TGI (RXF 393 renal): > 100 µM
TGI (MOLT-4 leukemia): > 100 µM
TGI (COLO 205 colon): > 100 µM
TGI (A498 renal): > 100 µM
TGI (DU-145 prostate): > 100 µM
TGI (SK-MEL-2 melanoma): > 100 µM
TGI (MDA-MB-435): > 100 µM
TGI (EKVX NSCLC): > 100 µM
